Test results reported in patent publication US20190076436A1, “MACROCYCLIC COMPOUNDS AS ROS1 KINASE INHIBITORS” (Array BioPharma Inc., priority 2017, published 2019).

Assays:
Type in all cases: biochemical
wild type ROS1 = wild type ROS1 (Homo sapiens, UniProt P08922); experiment: Inhibition of wild type ROS1 kinase, CisBio HTRF KinEASE-TK assay; settings: read-out: ROS1 wT IC50
Procedure: (§1) The potency of a compound inhibiting wild type and exemplary mutant ROS1 kinases was determined using CisBio's HTRF Kinease-TK assay technology. […] No. […] No. […] Each kinase is incubated with 250 nM TK-substrate biotin (CisBio, Cat. No. 62TKOPEC) and 1 mM ATP along with test compound in a buffer consisting of 25 mM MOPS [pH 7.4], 5 mM MgCl2, 0.005% Triton X-100, and 2% DMSO in a volume of 8 μL. […] After a 1 hour incubation at 22° C., the extent of reaction was determined using a PerkinElmer EnVision multimode plate reader via HTRF dual wavelength detection, and the percent of control (POC) was calculated using a ratiometric emission factor. 100 POC is determined using no test compound and 0 POC is determined in the absence of enzyme.

D2033N ROS1 = D2033N ROS1 (Homo sapiens, UniProt P08922, D2033N); experiment: Inhibition of D2033N ROS1 kinase, CisBio HTRF KinEASE-TK assay
Procedure: as §1

G2032R ROS1 = G2032R ROS1 (Homo sapiens, UniProt P08922, G2032R); experiment: Inhibition of G2032R ROS1 kinase, CisBio HTRF KinEASE-TK assay
Procedure: as §1

L2026M ROS1 = L2026M ROS1 (Homo sapiens, UniProt P08922, L2026M); experiment: Inhibition of L2026M ROS1 kinase, CisBio HTRF KinEASE-TK assay
Procedure: as §1

Sequence of wild type ROS1 (P08922 1883-2347 limits assumed): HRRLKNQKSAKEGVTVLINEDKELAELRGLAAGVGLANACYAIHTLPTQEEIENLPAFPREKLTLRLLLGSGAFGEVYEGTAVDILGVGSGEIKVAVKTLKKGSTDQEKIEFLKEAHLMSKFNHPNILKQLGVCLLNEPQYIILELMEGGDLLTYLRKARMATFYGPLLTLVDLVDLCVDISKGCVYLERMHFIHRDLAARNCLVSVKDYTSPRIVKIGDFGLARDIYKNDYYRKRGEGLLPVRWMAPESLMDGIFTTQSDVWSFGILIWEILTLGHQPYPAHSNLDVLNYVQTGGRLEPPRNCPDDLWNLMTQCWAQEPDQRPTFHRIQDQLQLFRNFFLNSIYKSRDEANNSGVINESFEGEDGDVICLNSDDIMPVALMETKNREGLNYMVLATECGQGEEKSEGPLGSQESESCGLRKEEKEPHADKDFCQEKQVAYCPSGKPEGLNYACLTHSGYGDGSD
Sequence of G2032R ROS1 (P08922 1883-2347 G2032R limits assumed): as the sequence (P08922 1883-2347 limits assumed) above, with G150R counted along it
Sequence of D2033N ROS1 (P08922 28-2347 D2033N): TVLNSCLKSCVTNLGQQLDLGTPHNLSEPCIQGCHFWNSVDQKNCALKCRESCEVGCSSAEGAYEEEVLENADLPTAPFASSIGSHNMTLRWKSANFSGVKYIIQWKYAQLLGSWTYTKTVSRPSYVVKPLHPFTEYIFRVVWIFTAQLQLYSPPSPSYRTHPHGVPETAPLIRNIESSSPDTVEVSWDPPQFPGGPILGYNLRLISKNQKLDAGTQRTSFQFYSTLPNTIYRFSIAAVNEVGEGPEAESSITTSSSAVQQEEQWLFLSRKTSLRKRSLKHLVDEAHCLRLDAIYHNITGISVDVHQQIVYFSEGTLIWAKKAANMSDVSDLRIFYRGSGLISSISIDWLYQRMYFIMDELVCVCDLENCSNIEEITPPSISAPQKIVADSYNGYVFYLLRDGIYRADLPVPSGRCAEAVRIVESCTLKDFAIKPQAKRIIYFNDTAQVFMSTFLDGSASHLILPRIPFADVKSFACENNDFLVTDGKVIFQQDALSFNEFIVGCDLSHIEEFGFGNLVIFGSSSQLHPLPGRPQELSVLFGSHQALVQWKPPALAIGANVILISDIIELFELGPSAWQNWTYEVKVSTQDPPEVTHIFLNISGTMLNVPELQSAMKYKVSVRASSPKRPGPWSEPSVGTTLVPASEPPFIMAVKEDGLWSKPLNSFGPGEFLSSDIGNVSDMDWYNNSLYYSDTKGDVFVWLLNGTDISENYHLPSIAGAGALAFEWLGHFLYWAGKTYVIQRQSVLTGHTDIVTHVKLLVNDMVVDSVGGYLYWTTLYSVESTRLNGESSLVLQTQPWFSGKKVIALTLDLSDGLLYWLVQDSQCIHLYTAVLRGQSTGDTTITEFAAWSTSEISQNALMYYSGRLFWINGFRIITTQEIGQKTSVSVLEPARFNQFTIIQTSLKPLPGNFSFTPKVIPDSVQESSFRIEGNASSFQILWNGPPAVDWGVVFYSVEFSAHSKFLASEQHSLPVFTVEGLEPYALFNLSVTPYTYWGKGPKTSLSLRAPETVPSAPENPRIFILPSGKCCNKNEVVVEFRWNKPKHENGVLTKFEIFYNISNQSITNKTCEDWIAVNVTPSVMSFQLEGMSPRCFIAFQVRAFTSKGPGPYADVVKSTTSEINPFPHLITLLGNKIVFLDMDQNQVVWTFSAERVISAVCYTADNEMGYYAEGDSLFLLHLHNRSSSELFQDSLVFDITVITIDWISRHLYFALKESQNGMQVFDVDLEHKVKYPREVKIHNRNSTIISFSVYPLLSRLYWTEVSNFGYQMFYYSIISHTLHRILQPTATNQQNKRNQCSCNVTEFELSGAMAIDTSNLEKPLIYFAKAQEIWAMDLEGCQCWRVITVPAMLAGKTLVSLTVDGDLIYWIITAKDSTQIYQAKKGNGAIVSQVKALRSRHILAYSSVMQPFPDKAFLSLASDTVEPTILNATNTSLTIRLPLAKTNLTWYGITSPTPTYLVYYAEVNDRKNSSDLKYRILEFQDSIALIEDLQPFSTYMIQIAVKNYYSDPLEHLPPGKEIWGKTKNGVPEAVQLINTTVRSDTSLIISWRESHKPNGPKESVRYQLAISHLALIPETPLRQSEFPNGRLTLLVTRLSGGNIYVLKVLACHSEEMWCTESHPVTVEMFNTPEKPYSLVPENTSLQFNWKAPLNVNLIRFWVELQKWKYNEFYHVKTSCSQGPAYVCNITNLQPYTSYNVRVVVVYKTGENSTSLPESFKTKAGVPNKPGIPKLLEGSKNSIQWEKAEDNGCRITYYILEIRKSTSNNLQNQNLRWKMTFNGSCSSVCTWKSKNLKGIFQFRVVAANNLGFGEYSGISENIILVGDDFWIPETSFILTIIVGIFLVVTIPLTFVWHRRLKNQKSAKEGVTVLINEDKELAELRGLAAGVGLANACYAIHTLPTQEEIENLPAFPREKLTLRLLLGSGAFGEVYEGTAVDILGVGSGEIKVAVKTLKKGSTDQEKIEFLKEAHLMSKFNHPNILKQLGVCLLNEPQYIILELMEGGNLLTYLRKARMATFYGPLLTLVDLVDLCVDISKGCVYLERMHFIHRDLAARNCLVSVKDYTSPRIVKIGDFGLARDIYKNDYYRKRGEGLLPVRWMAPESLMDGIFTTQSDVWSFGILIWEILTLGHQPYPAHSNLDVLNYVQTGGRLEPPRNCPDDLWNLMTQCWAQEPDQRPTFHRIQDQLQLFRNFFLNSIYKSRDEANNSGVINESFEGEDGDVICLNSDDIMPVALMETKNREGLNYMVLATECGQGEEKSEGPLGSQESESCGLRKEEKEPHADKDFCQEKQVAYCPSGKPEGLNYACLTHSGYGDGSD
Sequence of L2026M ROS1 (P08922 28-2347 L2026M): as the sequence (P08922 28-2347 D2033N) above, with L1999M, N2006D counted along it

| SMILES | IC50 (wild type ROS1) [nM] | IC50 (D2033N ROS1) [nM] | IC50 (G2032R ROS1) [nM] | IC50 (L2026M ROS1) [nM] |
| --- | --- | --- | --- | --- |
| C[C@H]1CNC(=O)c2cnn3ccc(nc23)N2CCC[C@@H]2c2cc(F)cn(c2=O)C1 [Compound 35, (6R,13S)-9-fluoro-13-methyl-2,11,15,19,20,23-hexaazapentacyclo [15.5.2.1^7,11.0^2,6.0^20,24]pentacosa-1(23),7,9,17(24),18,21-hexaene-16,25-dione] | 779 | 260 | 4930 | 589 |
| CC(=O)N1CCOc2ccc(F)cc2[C@H]2CCCN2c2ccn3ncc(c3n2)C1 [Compound 22, 1-[(6R)-9-fluoro-13-oxa-2,16,20,21,24-pentaazapentacyclo[16.5.2.0^2,6.0^7,12.0^21,25]pentacosa-1(24),7,9,11,18(25),19,22-heptaen-16-yl]ethan-1-one] | 331 | 397 | 3980 | 713 |
| O=C1NCCCOc2ccc(F)cc2[C@H]2CCCN2c2ccn3ncc1c3n2 [Compound 20, (6R)-9-fluoro-13-oxa-2,17,21,22,25-pentaazapentacyclo[17.5.2.0^2,6.0^7,12.0^22,26] hexacosa-1(25),7,9,11,19(26),20,23-heptaen-18-one] | 2.5 | 2.8 | 21.6 | 2.2 |
| O=C1OCCOc2ncc(F)cc2[C@H]2CCCN2c2ccn3ncc1c3n2 [Compound 14] | 28.9 | 7.6 | 107 | 30.3 |
| O=C1NCCCOc2ncc(F)cc2[C@H]2CCCN2c2ccn3ncc1c3n2 [Compound 3, (6R)-9-fluoro-13-oxa-2,11,17,21,22,25-hexaazapentacyclo[17.5.2.0^2,6.0^7,12.0^22,26] hexacosa-1(25),7,9,11,19(26),20,23-heptaen-18-one] | 1.2 | 0.3 | 9.4 | 1.2 |
| O=C1NCCOc2ncc(F)cc2[C@H]2CCCN2c2ccn3ncc1c3n2 [Compound 9, (6R)-9-fluoro-13-oxa-2,11,16,20,21,24-hexaazapentacyclo[16.5.2.0^2,6.0^7,12.0^21,25] pentacosa-1(24),7,9,11,18(25),19,22-heptaen-17-one] | 9.2 | 1.7 | 98.6 | 10.2 |
| O=C1NCCCOc2cccc(n2)[C@H]2CCCN2c2ccn3ncc1c3n2 [Compound 2, (6R)-12-oxa-2,16,20,21,24,26-hexaazapentacyclo[16.5.2.1^7,11.0^2,6.0^21,25] hexacosa-1(24),7(26),8,10,18(25),19,22-heptaen-17-one] | 80.3 | 11.9 | 1060 | 67 |
| O=C1NCC(F)(F)COc2ncc(F)cc2[C@H]2CCCN2c2ccn3ncc1c3n2 [Compound 19, (6R)-9,15,15-trifluoro-13-oxa-2,11,17,21,22,25-hexaazapentacyclo[17.5.2.0^2,6.0^7,12.0^22,26] hexacosa-1(25),7,9,11,19(26),20,23-heptaen-18-one] | 2.4 | 1.2 | 14.4 | 2.4 |
| O=C1NC[C@H](O)COc2ccc(F)cc2C2CC(F)(F)CN2c2ccn3ncc1c3n2 (single isomer, unassigned) [Compound 45] | 6.1 | 16.8 | 114 | 4.6 |
| O=C1NC[C@@H](O)COc2ncc(F)cc2[C@H]2CCCN2c2ccn3ncc1c3n2 [Compound 7, (6R,15R)-9-fluoro-15-hydroxy-13-oxa-2,11,17,21,22,25-hexaazapentacyclo-[17.5.2.0^2,6.0^7,12.0^22,26]hexacosa-1(25),7,9,11,19(26),20,23-heptaen-18-one] | 3.1 | 0.6 | 29.2 | 2.9 |
